This test deals with NACHT, LRR and PYD domains-containing protein 3 (Mus musculus, UniProt Q8R4B8). Briefly: Inhibition of NLRP3 in mouse J774.A1 cells assessed as reduction IL-1beta release by ELISA. The test is classed as cell-based.

SMILES strings stand for the structures.

Our source for the IC50 values is ChEMBL document CHEMBL6134828, “Discovery, synthesis, and biological mechanism evaluation of novel quinoline derivatives as potent NLRP3 inhibitors” (Eur J Med Chem, 2025).

Chain of NACHT, LRR and PYD domains-containing protein 3 (Q8R4B8 whole entry, the tested form may be a part): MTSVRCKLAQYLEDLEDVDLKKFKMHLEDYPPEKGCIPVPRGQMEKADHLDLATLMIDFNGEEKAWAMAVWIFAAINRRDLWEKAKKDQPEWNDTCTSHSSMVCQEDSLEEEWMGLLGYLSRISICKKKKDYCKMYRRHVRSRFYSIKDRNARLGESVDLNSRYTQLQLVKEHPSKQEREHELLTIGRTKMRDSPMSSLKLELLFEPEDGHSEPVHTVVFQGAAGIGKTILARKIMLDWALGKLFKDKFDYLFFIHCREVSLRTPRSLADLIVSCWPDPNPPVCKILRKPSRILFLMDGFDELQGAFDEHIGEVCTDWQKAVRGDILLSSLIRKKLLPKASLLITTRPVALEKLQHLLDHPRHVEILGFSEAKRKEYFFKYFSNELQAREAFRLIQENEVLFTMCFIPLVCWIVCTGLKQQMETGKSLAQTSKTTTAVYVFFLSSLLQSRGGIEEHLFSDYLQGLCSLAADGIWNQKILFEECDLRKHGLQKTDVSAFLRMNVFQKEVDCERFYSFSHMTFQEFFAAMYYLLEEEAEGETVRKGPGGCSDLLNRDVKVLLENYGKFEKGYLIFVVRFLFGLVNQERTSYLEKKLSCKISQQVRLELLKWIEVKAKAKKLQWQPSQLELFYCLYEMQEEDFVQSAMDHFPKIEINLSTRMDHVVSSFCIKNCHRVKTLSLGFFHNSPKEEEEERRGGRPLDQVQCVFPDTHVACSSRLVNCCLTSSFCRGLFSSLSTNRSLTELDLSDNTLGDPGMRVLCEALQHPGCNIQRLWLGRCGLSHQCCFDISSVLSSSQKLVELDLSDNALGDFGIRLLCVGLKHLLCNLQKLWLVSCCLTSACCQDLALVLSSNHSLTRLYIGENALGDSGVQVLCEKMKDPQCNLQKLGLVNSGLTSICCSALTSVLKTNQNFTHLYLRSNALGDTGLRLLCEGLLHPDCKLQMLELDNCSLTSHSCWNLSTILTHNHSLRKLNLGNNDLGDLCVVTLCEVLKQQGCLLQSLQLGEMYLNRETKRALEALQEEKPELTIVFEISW

What is called IC50 is the concentration needed to halve the response being measured. Turning to `CC[C@H](NC(=O)c1c(C)c(-c2ccc(C(F)(F)F)cc2)nc2ccccc12)c1ccccc1`, the half-inhibitory concentration (IC50) was determined as 2.75 µM.

In the case of `Cc1ccc(O)cc1NC(=O)c1cc(-c2ccccc2)nc2ccccc12`, the IC50 was determined as 7.07 µM.

As for `CC[C@H](NC(=O)c1c(C)c(-c2cccc(F)c2)nc2ccc(F)cc12)c1ccccc1`, the half-inhibitory concentration (IC50) stood at 1.36 µM.

For `CC[C@@H](NC(=O)c1cc(-c2ccccc2)nc2ccccc12)c1ccccc1`, the IC50 worked out at 2.08 µM.

Consider `CC[C@H](NC(=O)c1c(C)c(-c2cccc(F)c2)nc2cc(OC)ccc12)c1ccccc1`, for which the half-maximal inhibitory concentration (IC50) was determined as 1.2 µM.

Consider `CC[C@H](NC(=O)c1c(C)c(-c2cccc(F)c2)nc2c(Cl)cccc12)c1ccccc1`, for which the IC50 was found to be 0.71 µM.

In the case of `CC[C@H](NC(=O)c1c(C)c(-c2cccc(F)c2)nc2cc(Cl)ccc12)c1ccccc1`, the IC50 turned out to be 0.92 µM.

As for `CC[C@H](NC(=O)c1c(C)c(-c2cccc(F)c2)nc2ccc(OC)cc12)c1ccccc1`, the IC50 turned out to be 1.04 µM.

In the case of `CC[C@H](NC(=O)c1c(C)c(-c2cccc(F)c2)nc2c(NC(C)=O)cccc12)c1ccccc1`, the IC50 came to 0.72 µM.

`CCN(CC)CCCC(C)Nc1ccnc2cc(Cl)ccc12` (centres undefined) [CHLOROQUINE]: the half-inhibitory concentration (IC50) was 87.9 µM.

On to `CC[C@H](NC(=O)c1cc(Cl)nc2ccccc12)c1ccccc1`, for which the IC50 was 84.7 µM.

For the compound `O=C(N[C@@H]1CCc2ccccc21)c1cc(-c2ccccc2)nc2ccccc12`, the IC50 amounted to 7.95 µM.

On to `CC[C@H](NC(=O)c1cc(C)nc2ccccc12)c1ccccc1`, for which the IC50 was determined as 85 µM.

As to `O=C(N[C@H]1CCc2ccccc21)c1cc(-c2ccccc2)nc2ccccc12`, the IC50 was found to be 4.51 µM.

Consider `CCN(CC)CCCC(C)NC(=O)c1cc(-c2ccccc2)nc2ccccc12` (centres undefined), for which the IC50 turned out to be 11.4 µM.

As for `CC[C@H](NC(=O)c1c(C)c(-c2cccc(Cl)c2)nc2ccccc12)c1ccccc1`, the IC50 was found to be 0.89 µM.

Regarding `Cc1ccccc1CNC(=O)c1cc(-c2ccccc2)nc2ccccc12`, the concentration for half-maximal inhibition (IC50) is 4.31 µM.

On to `CC[C@H](NC(=O)c1c(C)c(-c2ccccc2)nc2ccccc12)c1ccccc1` [SB-222200], for which the IC50 was 1.27 µM.

For `O=C(NCCc1ccccc1)c1cc(-c2ccccc2)nc2ccccc12`, the concentration for half-maximal inhibition (IC50) is 70.4 µM.
